From PubChem BioAssay (NCI) come the findings set out here.

Structures are written as SMILES.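 In this assay, cells in 96-well plates receive the compound at five concentrations for 48 hours. Endpoints are linearly interpolated between the surrounding concentrations. Here, GI50 denotes the concentration required for 50% inhibition of growth. Definition used: TGI = concentration required for complete inhibition of growth.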 Bounds are passed on as bounds.

Some test systems named below: NCI-H460 lung; SW-620 colon; NCI-H522 lung; NCI-H226 lung; SF-539 CNS; HOP-92 NSCLC; NCI-H23 lung; DU-145 prostate; OVCAR-3 ovarian; 786-0 renal.
Holding throughout (test): inhibition of tumour cell growth, NCI panel, 48 h

With `COc1c(N2CCN(CN3C(=O)C(=Nc4ccc(S(=O)(=O)Nc5ncccn5)cc4)c4cc(Cl)ccc43)C(C)C2)c(F)cc2c(=O)c(C(=O)O)cn(C3CC3)c12` (stereo not given), the GI50 in the experiment on NCI-H460 lung is 10.9 µM; in the experiment on SW-620 colon, 10.7 µM; in the experiment on NCI-H522 lung, above 50 µM; with NCI-H226 lung it was 30 µM; in the experiment with SF-539 CNS it was 15.4 µM; in the experiment with HOP-92 NSCLC, 19.2 µM. Also, the GI50 in the experiment with NCI-H23 lung is 8.22 µM; in the experiment with DU-145 prostate, 16.3 µM; with OVCAR-3 ovarian it was 14.3 µM; with 786-0 renal it was 19.2 µM. The TGI in the experiment with NCI-H460 lung is 46 µM; with SW-620 colon, 44.7 µM; in the experiment with NCI-H522 lung it was above 50 µM; in the experiment on NCI-H226 lung, above 50 µM; in the experiment on SF-539 CNS, 40.9 µM; in the experiment on HOP-92 NSCLC it was above 50 µM. The TGI was 18.4 µM in the experiment on NCI-H23 lung, above 50 µM in the experiment on DU-145 prostate, above 50 µM in the experiment with OVCAR-3 ovarian and above 50 µM in the experiment with 786-0 renal.
Regarding `COc1cc(CNc2oc(-c3ccccc3)c(-c3ccccc3)c2C#N)cc(CN2CCN(C)CC2)c1O`, the GI50 in the experiment on NCI-H460 lung was 1.89 µM; in the experiment with SW-620 colon it was 1.72 µM; in the experiment with NCI-H522 lung it was 1.87 µM; with NCI-H226 lung, 2.48 µM; with SF-539 CNS it was 1.72 µM; with HOP-92 NSCLC it was 2.34 µM. In addition, the GI50 with NCI-H23 lung was 1.86 µM; with DU-145 prostate, 1.99 µM; with OVCAR-3 ovarian, 1.76 µM; in the experiment on 786-0 renal, 1.68 µM. Moreover, the TGI stood at 3.55 µM in the experiment on NCI-H460 lung; 3.33 µM in the experiment with SW-620 colon; 3.95 µM with NCI-H522 lung; 6.75 µM in the experiment with NCI-H226 lung; 3.16 µM in the experiment on SF-539 CNS; 10.2 µM in the experiment on HOP-92 NSCLC. Moreover, the TGI was 3.79 µM in the experiment with NCI-H23 lung, 4.03 µM in the experiment on DU-145 prostate, 3.21 µM with OVCAR-3 ovarian and 3.21 µM with 786-0 renal.
Regarding `CC[C@H](C)[C@H](NC(=O)c1cccn1C)C(=O)N(C)[C@H](C[C@@H](OC(C)=O)c1nc(C(=O)N[C@@H](Cc2ccccc2)C[C@H](C)C(=O)OC)cs1)C(C)C`, the GI50 is 0.123 µM with NCI-H460 lung; 0.205 µM with SW-620 colon; 0.0661 µM with NCI-H522 lung; 1.17 µM with NCI-H226 lung; 0.203 µM in the experiment with SF-539 CNS; 0.13 µM in the experiment on HOP-92 NSCLC. The GI50 with NCI-H23 lung is 0.216 µM; with DU-145 prostate it was 0.348 µM; in the experiment on OVCAR-3 ovarian it was 0.0809 µM; with 786-0 renal, 0.172 µM. In addition, the TGI is above 14.4 µM in the experiment on NCI-H460 lung; above 33.3 µM in the experiment on SW-620 colon; 2.08 µM in the experiment on NCI-H522 lung; above 33.3 µM in the experiment on NCI-H226 lung; 1.22 µM with SF-539 CNS; 5.08 µM in the experiment on HOP-92 NSCLC. For the same molecule, the TGI with NCI-H23 lung is above 33.3 µM; in the experiment on DU-145 prostate it was above 33.3 µM; in the experiment on OVCAR-3 ovarian, 0.272 µM; in the experiment with 786-0 renal, above 15.8 µM.
Regarding `COc1cc(NCCCCCN=C(N)NC(N)=NC(C)C)c2ncccc2c1`, the GI50 with NCI-H460 lung is 4.49 µM; in the experiment on SW-620 colon, 0.927 µM; in the experiment on NCI-H522 lung, 1.18 µM; in the experiment on NCI-H226 lung, 7.52 µM; with SF-539 CNS it was 2.3 µM; in the experiment on HOP-92 NSCLC it was 1.75 µM. The GI50 was 0.401 µM in the experiment on NCI-H23 lung, 10.3 µM in the experiment on DU-145 prostate, 0.217 µM in the experiment with OVCAR-3 ovarian and 12.2 µM with 786-0 renal. For the same molecule, the TGI came out at 18.1 µM in the experiment on NCI-H460 lung; 14 µM with SW-620 colon; 4.58 µM in the experiment on NCI-H522 lung; 24.8 µM in the experiment with NCI-H226 lung; 12.8 µM with SF-539 CNS; 9.82 µM in the experiment on HOP-92 NSCLC. The TGI stood at 2.3 µM in the experiment on NCI-H23 lung, 22.3 µM with DU-145 prostate, 0.759 µM with OVCAR-3 ovarian and 26.6 µM in the experiment with 786-0 renal.
Turning to `CNC(=O)c1cncc(/C=C/c2ccccc2Cl)c1`, the GI50 is above 25 µM in the experiment with NCI-H460 lung; above 25 µM in the experiment on SW-620 colon; above 25 µM in the experiment on NCI-H522 lung; above 25 µM in the experiment with NCI-H226 lung; above 25 µM in the experiment on SF-539 CNS; 12.6 µM with HOP-92 NSCLC. In addition, the GI50 in the experiment on NCI-H23 lung, in the experiment on DU-145 prostate, with OVCAR-3 ovarian and in the experiment with 786-0 renal was above 25 µM in each case. For the same molecule, the TGI in the experiment with NCI-H460 lung, in the experiment with SW-620 colon, with NCI-H522 lung, in the experiment on NCI-H226 lung, in the experiment with SF-539 CNS and with HOP-92 NSCLC was above 25 µM throughout. The TGI in the experiment on NCI-H23 lung, with DU-145 prostate, in the experiment with OVCAR-3 ovarian and in the experiment with 786-0 renal was above 25 µM throughout.
With `O=C1NC(c2ccccc2)C2(C(=O)O)CN(C3CC3)c3cc(N4CCNCC4)c(F)cc3C2N1` (stereo not given), the GI50 in the experiment with NCI-H460 lung, in the experiment on SW-620 colon, in the experiment with NCI-H522 lung, in the experiment on NCI-H226 lung, in the experiment on SF-539 CNS and in the experiment with HOP-92 NSCLC was above 100 µM throughout. The GI50 in the experiment with NCI-H23 lung, in the experiment on DU-145 prostate, in the experiment with OVCAR-3 ovarian and in the experiment with 786-0 renal was above 100 µM throughout. Moreover, the TGI with NCI-H460 lung, in the experiment with SW-620 colon, in the experiment on NCI-H522 lung, in the experiment with NCI-H226 lung, in the experiment on SF-539 CNS and in the experiment on HOP-92 NSCLC was above 100 µM throughout. The TGI with NCI-H23 lung, in the experiment on DU-145 prostate, in the experiment with OVCAR-3 ovarian and with 786-0 renal was above 100 µM throughout.
For `C=C1CCC2C3(C)COC(c4ccccc4Cl)OC3CCC2(C)C1/C=C/C1=CCOC1=O` (stereo not given), the GI50 in the experiment with NCI-H460 lung is 5.96 µM; with SW-620 colon it was 25 µM; with NCI-H522 lung, 4.24 µM; in the experiment with NCI-H226 lung, 14.3 µM; in the experiment with SF-539 CNS it was 24 µM; with HOP-92 NSCLC it was 1.6 µM. Further, the GI50 in the experiment on NCI-H23 lung was 6.18 µM; in the experiment on DU-145 prostate it was above 100 µM; with OVCAR-3 ovarian it was 26.2 µM; with 786-0 renal, above 100 µM. For the same molecule, the TGI with NCI-H460 lung, in the experiment on SW-620 colon, in the experiment on NCI-H522 lung, in the experiment on NCI-H226 lung, with SF-539 CNS and in the experiment on HOP-92 NSCLC was above 100 µM throughout. In addition, the TGI with NCI-H23 lung, with DU-145 prostate, with OVCAR-3 ovarian and with 786-0 renal was above 100 µM throughout.
